Experimental data as given in US20210221808A1, “3-OXAZOLINONE COMPOUND, PREPARATION METHOD THEREFOR AND PHARMACEUTICAL APPLICATION THEREOF” (Beijing Innocare Pharma Tech Co., Ltd., priority 2018, published 2021).

What was measured:
[1] = biological target: T1, indoleamine 2,3-dioxygenase (IDO) activity in Hela cells (Homo sapiens, UniProt P14902); test: IDO Intracellular Activity Inhibition Test (Ehrlich method, IFN-γ induced Hela cells); format: cell-based; conditions: IDO activity in Hela cells induced by IFN-γ, 24 hours incubation, OD490
T1 construct: a certain concentration of IFN-γ can induce Hela cells to express IDO; host or cells: HeLa cells induced with IFN-γ
T1 sequence (P14902 whole entry): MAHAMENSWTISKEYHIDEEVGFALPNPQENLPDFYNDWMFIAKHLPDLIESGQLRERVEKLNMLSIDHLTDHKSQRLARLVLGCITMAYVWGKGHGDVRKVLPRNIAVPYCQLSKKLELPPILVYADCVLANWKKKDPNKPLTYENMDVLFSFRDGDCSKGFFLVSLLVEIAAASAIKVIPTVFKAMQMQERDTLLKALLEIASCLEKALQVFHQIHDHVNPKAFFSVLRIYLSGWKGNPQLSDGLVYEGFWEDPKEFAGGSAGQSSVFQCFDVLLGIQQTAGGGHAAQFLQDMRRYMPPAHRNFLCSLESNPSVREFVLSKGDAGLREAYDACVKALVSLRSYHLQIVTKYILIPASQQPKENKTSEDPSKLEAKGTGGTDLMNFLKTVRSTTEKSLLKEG
Method: IDO Intracellular Activity Inhibition Test
The effect of the compound of the present invention on the indoleamine 2,3-dioxygenase (IDO) activity in Hela cells induced by IFN-γ was evaluated by the Ehrlich method.
The principle underlined for this experiment is summarized as follows: The expression of IDO in Hela cells is low in the absence of any induction. However, a certain concentration of IFN-γ can induce Hela cells to express IDO, so that it can catalyze the production of N-formylkynurenine from tryptophan. The produced N-formylkynurenine can be hydrolyzed by trichloroacetic acid to kynurenine, then a color reaction of the achieved kynurenine with Ehrlich reagent can be used to detect the activity of IDO. The absorbance at 490 nm (OD490) is in proportion to the activity of IDO.
The compound was dissolved and diluted to 5 mM with DMSO (Sigma, catalog number: D5879), then serially diluted in 3 folds each time with DMSO to a minimum concentration of 2.29 μM. The diluent at each concentration point was further diluted in 50 folds with DMEM medium (ThermoFisher, catalog number: 11995073) free of FBS. If the IC50 value of the compound was very low, the initial concentration of the compound could be lowered. Hela cells (ATCC, catalog number CCL-2) were cultured in DMEM complete medium containing 10% FBS (GBICO, catalog number 10099-141) and 100 U/mL penicillin streptomycin mixture (ThermoFisher, catalog number 15140122). When the cell coverage in the culture vessel reached 80-90%, 0.25% pancreatin (containing EDTA) (ThermoFisher, catalog number 25200056) was used to digest and blow off the cells, and the cells were grown in a 96-well plate (Corning, catalog number 3599), 30,000 cells per well (80 μL DMEM medium). The 96-well plate was then incubated in an incubator (37° C., 5% CO2) overnight (18-20 hours).
10 μL of DMEM diluted compound and 10 μL of 500 ng/mL INF-γ were added to each well, and mixed gently. The 96-well plate was placed into an incubator (37° C., 5% CO2) for further incubation. The mixture was taken out and centrifuged at 2000×g at room temperature for 5 minutes after 24 hours of incubation, the supernatant was transferred to the reaction plate (Sigma, catalog number CLS3695), one-twentieth of trichloroacetic acid (Sigma, product number T9159) was added, and incubated at 60° C. after mixed well. 30 minutes later, the reaction plate was taken out and centrifuged at 2000×g at room temperature for 5 minutes, the supernatant was transferred to a clean reaction plate, equal volume of Ehrlich reagent was added, and the mixture was incubated at room temperature after mixed well. The OD490 of each well was determined 5 minutes later.
In the experiment, OD490 of the DMEM medium control group without IFN-γ was used as OD490100% inhbition; OD490 of the group in which the final concentration of IFN-γ in DMSO was 0.2% was used ads OD4900% inhbition.
The percent inhibition of IDO activity in Hela cells by a compound can be calculated by the following formula: […]
IC50 of a compound was calculated by the following formula using 8 concentration points and XLfit (ID Business Solutions Ltd., UK) software
Y=Bottom+(Top−Bottom)/(1+10^((log IC50−X)*slope factor))
where Y is inhibition percentage. Bottom is the bottom plateau of the S-type curve, Top is the top plateau of the S-type curve, X is the logarithm of the concentration of the tested compound, and slope factor is the slope coefficient of the curve.

[2] = system: CT26 tumors; conditions: repeated administration; cited from earlier work
[3] = biological target: T2, plasma IDO activity (Mus musculus, UniProt P28776); conditions: single administration, blank mice; cited from earlier work
T2 construct: host or cells: mice, in vivo
T2 sequence (P28776 whole entry): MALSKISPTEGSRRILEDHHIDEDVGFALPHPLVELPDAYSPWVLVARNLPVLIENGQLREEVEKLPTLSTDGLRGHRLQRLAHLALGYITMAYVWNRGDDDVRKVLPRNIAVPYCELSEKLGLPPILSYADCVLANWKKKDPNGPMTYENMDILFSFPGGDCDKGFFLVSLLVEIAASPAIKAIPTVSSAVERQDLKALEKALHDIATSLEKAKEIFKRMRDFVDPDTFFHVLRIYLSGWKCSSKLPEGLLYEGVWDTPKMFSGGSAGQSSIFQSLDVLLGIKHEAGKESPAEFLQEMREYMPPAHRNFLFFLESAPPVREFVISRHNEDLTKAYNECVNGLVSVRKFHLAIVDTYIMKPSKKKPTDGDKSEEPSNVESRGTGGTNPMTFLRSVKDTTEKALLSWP

Row | IC50 [1] [nM] | Structure (SMILES) | expansion of CT26 tumors [2] | inhibition of plasma IDO activity [3]
1 | 50 to 200 | O=c1c2ccc(Cl)cc2[nH]n1C[C@H]1CC[C@H](c2ccnc3ccc(F)cc32)CC1 [Compound 1, 6-chloro-2-(((1r,4r)-4-(6-fluoroquinolin-4-yl)cyclohexyl)methyl)-1,2-dihydro-3H-indazol-3-one] |  | 
2 | < 50 | O=c1c2ccc(Cl)cc2[nH]n1C[C@H]1CC[C@@H](c2ccnc3ccc(F)cc32)CC1 [Compound 2, 6-chloro-2-(((1s,4s)-4-(6-fluoroquinolin-4-yl)cyclohexyl)methyl)-1,2-dihydro-3H-indazol-3-one] |  | 
3 | 50 to 200 | CC([C@H]1CC[C@H](c2ccnc3ccc(F)cc32)CC1)n1[nH]c2cc(Cl)ccc2c1=O (stereo partly shown) [Compound 3, 6-chloro-2-(1-((1r,4r)-4-(6-fluoroquinolin-4-yl)cyclohexyl)ethyl)-1,2-dihydro-3H-indazol-3-one] |  | 
4 | < 50 | CC([C@H]1CC[C@@H](c2ccnc3ccc(F)cc32)CC1)n1[nH]c2cc(Cl)ccc2c1=O (stereo partly shown) [Compound 4, 6-chloro-2-(1-((1s,4s)-4-(6-fluoroquinolin-4-yl)cyclohexyl)ethyl)-1,2-dihydro-3H-indazol-3-one] |  | 
5 | < 50 | Cc1cc([C@H]2CC[C@@H]([C@@H](C)n3[nH]c4cc(Cl)ccc4c3=O)CC2)ccn1 [Compound 5, 6-chloro-2-((R)-1-((1s,4S)-4-(2-methylpyridin-4-yl)cyclohexyl)ethyl)-1,2-dihydro-3H-indazol-3-one] |  | 
6 | < 50 | C[C@H]([C@H]1CC[C@@H](c2ccnc3ccc(F)cc32)CC1)n1[nH]c2cc(Cl)ccc2c1=O [Compound 6, 6-chloro-2-((R)-1-((1s,4S)-4-(6-fluoroquinolin-4-yl)cyclohexyl)ethyl)-1,2-dihydro-3H-indazol-3-one] |  | 
7 | < 50 | C[C@H]([C@H]1CC[C@@H](c2ccnc3ccc(F)cc32)CC1)n1[nH]c2ccc(Cl)cc2c1=O [Compound 7, 5-chloro-2-((R)-1-((1s,4S)-4-(6-fluoroquinolin-4-yl)cyclohexyl)ethyl)-1,2-dihydro-3H-indazol-3-one] |  | 
8 | < 50 | C[C@H]([C@H]1CC[C@@H](c2ccnc3ccc(F)cc32)CC1)n1[nH]c2cc(Cl)cnc2c1=O [Compound 8, 6-chloro-2-((R)-1-((1s,4S)-4-(6-fluoroquinolin-4-yl)cyclohexyl)ethyl)-1,2-dihydro-3H-pyrazolo[4,3-b]pyridin-3-one] |  | 
9 | < 50 | C[C@H]([C@H]1CC[C@@H](c2ccnc3ccc(F)cc32)CC1)n1[nH]c2ncc(Cl)cc2c1=O [Compound 9, 5-chloro-2-((R)-1-((1s,4S)-4-(6-fluoroquinolin-4-yl)cyclohexyl)ethyl)-1,2-dihydro-3H-pyrazolo[3,4-b]pyridin-3-one] |  | 
10 | < 50 | C[C@H]([C@H]1CC[C@@H](c2ccnc3ccc(F)cc32)CC1)n1[nH]c2cc(Cl)c(Cl)cc2c1=O [Compound 10, 5,6-dichloro-2-((R)-1-((1s,4S)-4-(6-fluoroquinolin-4-yl)cyclohexyl)ethyl)-1,2-dihydro-3H-indazol-3-one] |  | 
11 | < 50 | C[C@H]([C@H]1CC[C@@H](c2ccnc3ccc(F)cc32)CC1)n1[nH]c2ccc(Br)cc2c1=O [Compound 11, 5-bromo-2-((R)-1-((1s,4S)-4-(6-fluoroquinolin-4-yl)cyclohexyl)ethyl)-1,2-dihydro-3H-indazol-3-one] |  | 
12 |  | NS(=O)(=O)NCCNc1nonc1C(=NO)Nc1ccc(F)c(Br)c1 [INCB-024360] | hinders the expansion of CT26 tumors | effectively inhibit the plasma IDO activity of blank mice to be at the level of IDO-deficient mice
